Assay results published in patent US20230105212A1, “BIPHENYL DERIVATIVE INHIBITOR, PREPARATION METHOD THEREFOR AND USE THEREOF” (SHANGHAI HANSOH BIOMEDICAL CO., LTD., priority 2020, published 2023).

Assays:
human PD-1/PD-L1 binding = target: T1, human PD-1/PD-L1 binding (Homo sapiens, UniProt Q9NZQ7); assay: Inhibition of human PD-1/PD-L1 binding (TR-FRET/HTRF); conditions: TR-FRET, PD-L1-His and PD-1-Fc; read-out: PD-1/PD-L1 binding IC50
T1 construct: PD-L1-His protein (19 to 238 amino acids) (Abcam #ab167713); purchased Abcam (PD-L1-His); R&D (PD-1-Fc) ab167713; 1086-PD
T1 sequence (Q9NZQ7 19-238): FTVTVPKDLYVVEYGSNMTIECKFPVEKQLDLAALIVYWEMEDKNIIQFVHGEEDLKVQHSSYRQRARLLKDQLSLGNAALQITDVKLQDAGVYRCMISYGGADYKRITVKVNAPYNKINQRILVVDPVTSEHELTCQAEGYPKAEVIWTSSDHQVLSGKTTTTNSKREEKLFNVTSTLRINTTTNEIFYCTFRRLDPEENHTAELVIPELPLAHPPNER
How it was run: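 PD-L1-His (aa 19–238, diluted to 10 nM) and PD-1-Fc (aa 25–167, diluted to 20 nM) incubated with compounds (10 μM or 1 μM top, 3-fold, 11 doses) 60 min at room temperature, then anti-6HIS Eu cryptate/anti-human IgG-XL665 added for 3 h RT or overnight 4 °C. HTRF 665/620 nm ratio gave inhibition and IC50.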

[1] = target: T2, PD-L1 protein on the surface of MC38-hPDL1 tumor cells (Homo sapiens, UniProt Q9NZQ7); assay: Induction of endocytosis of PD-L1 on the surface of tumor cells (flow cytometry); format: cell-based; conditions: 16 hours incubation; for Emax: MC38-hPDL1 cells, read-out: MC38 maximum endocytosis rate; for IC50: inducing endocytosis of PD-L1, MC38-hPDL1 cells, read-out: MC38 IC50
T2 construct: expressed in transfected cells; host or cells: MC38-hPDL1 (mouse colon cancer cells)
T2 sequence (Q9NZQ7 19-290): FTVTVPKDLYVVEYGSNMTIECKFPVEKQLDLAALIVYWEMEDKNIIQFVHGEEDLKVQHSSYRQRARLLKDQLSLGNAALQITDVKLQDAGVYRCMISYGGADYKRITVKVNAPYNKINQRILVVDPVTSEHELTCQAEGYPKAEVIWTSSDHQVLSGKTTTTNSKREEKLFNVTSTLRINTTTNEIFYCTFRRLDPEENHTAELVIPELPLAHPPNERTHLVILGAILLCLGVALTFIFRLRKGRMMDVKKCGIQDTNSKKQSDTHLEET
How it was run: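 MC38-hPDL1 mouse colon cancer cells overexpressing human PD-L1 were exposed to compound dilutions for 16 h at 37 °C. Surface PD-L1 was then stained with PE anti-human CD274 for 30 min at room temperature and measured by flow cytometry. Endocytosis rate versus concentration was fitted by nonlinear regression to give IC50.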

[2] = Pharmacokinetics test in Balb/C mice; format: in vivo; conditions: male, mouse, po, p.o. 5 mg/kg, plasma; for MRT inf: read-out: Average residence time MRT0−∞; for AUC(0-t): read-out: Curve area AUC0−t; for Cmax: read-out: Drug concentration in plasma Cmax; for half-life: read-out: Half life t1/2 (converted); for Tmax: read-out: Peak time tmax
Protocol: Test Embodiment 6. Pharmacokinetics Test in Balb/C Mice
Taking Balb/C mice as the test animals, the pharmacokinetic behavior in the plasma of mice of the following compound embodiments was studied when orally administered at a dose of 5 mg/kg.
Balb/C Mouse 6/embodiment, male, Shanghai Jisijie Laboratory Animal Co., Ltd., animal production license number (SCXK (Shanghai) 2013-0006 No. 311620400001794).
0.5% HPMC (1% Tween 80), dissolved by sonication, to prepare a clear solution or a homogeneous suspension.
Balb/C mice, male; p.o. after overnight fasting, respectively, at a dose of 5 mg/kg, administered in a volume of 10 mL/kg.
Before and after administration of mice, at 0, 0.5, 1, 2, 4, 6, 8 and 24 hours, 0.1 mL of blood was collected from the orbit, placed in an EDTA-K2 test tube, and centrifuged at 6000 rpm at 4° C. for 6 min to separate the plasma, stored at −80° C.
1) 40 μL of plasma samples were added to 160 μL of acetonitrile for precipitation, mixed and centrifuged at 3500×g for 5 to 20 minutes.
2) 100 μL of the supernatant solution after treatment was taken for LC/MS/MS to analyze the concentration of the compounds to be tested.
2.6 Liquid Phase Analysis • Liquid phase condition: Shimadzu LC-20AD pump • MS conditions: AB Sciex API 4000 Mass Spectrometer • Chromatographic column: phenomenex Gemiu 5 μm C18 50×4.6 mm • Mobile phase: A solution was aqueous 0.1% formic acid solution, B solution was acetonitrile • Flow rate: 0.8 mL/min • Elution time: 0 to 4.0 minutes, the eluent was as follows:
The main parameters of pharmacokinetics were calculated with WinNonlin 8.2, and the results of the mice pharmacokinetic experiments were shown in the following table: […]

| IC50 (human PD-1/PD-L1 binding) | Emax [1] | MRT inf [2] | AUC(0-t) [2] | Cmax [2] | half-life [2] | Tmax [2] | IC50 [1] | Structure (SMILES) |
| --- | --- | --- | --- | --- | --- | --- | --- | --- |
| 4.7 nM | 95% | 16.8 h | 1190 ng·h/mL | 75 ng/mL | 10.9 h | 6 h | – | COc1nc(-c2cccc(-c3cccc(NC(=O)c4nc5c(n4C)CCN(C)C5)c3Cl)c2Cl)ccc1CN1CC(C(=O)N(C)C)C1 [Embodiment 183, N-(2,2′-Dichloro-3′-(5-((3-(dimethylcarbamoyl)azetidin-1-yl)methyl)-6-methoxypyridin-2-yl)-[1,1′-biphenyl]-3-yl)-1,5-dimethyl-4,5,6,7-tetrahydro-1H-imidazo[4,5-c]pyridine-2-carboxamide] |
| 4.5 nM | 93% | 10.6 h | 1920 ng·h/mL | – | 9.2 h | 2 h | – | COc1nc(-c2cccc(-c3cccc(NC(=O)c4nc5c(n4C)CCN(C)C5)c3Cl)c2Cl)ncc1CN1CC(CNC(C)=O)C1 [Embodiment 225, N-(3′-(5-((3-(Acetylaminomethyl)azetidin-1-yl)methyl)-4-methoxypyrimidin-2-yl)-2,2′-dichloro-[1,1′-biphenyl]-3-yl)-1,5-dimethyl-4,5,6,7-tetrahydro-1H-imidazo[4,5-c]pyridine-2-carboxamide] |
| 4.2 nM | 98% | – | 1630 ng·h/mL | 132 ng/mL | – | 6 h | 0.4 nM | COc1nc(-c2cccc(-c3cccc(NC(=O)c4nc5c(n4C)CCN(C)C5)c3Cl)c2Cl)ccc1CN[C@H]1CCOC[C@@H]1O (relative stereo) [Embodiment 175, N-(2,2′-Dichloro-3′-(5-((((3,4-trans)-3-hydroxytetrahydro-2H-pyran-4-yl)amino)methyl)-6-methoxypyridin-2-yl)-[1,1′-biphenyl]-3-yl)-1,5-dimethyl-4,5,6,7-tetrahydro-1H-imidazo[4,5-c]pyridine-2-carboxamide] |
| 1.3 nM | 97% | 10 h | 1140 ng·h/mL | 93 ng/mL | – | 8 h | 0.6 nM | COc1nc(-c2cccc(-c3cccc(NC(=O)c4nc5c(n4C)CCN(C)C5)c3Cl)c2Cl)cnc1CN1CC2(C1)CN(C(C)=O)C2 [Embodiment 152, N-(3′-(5-((6-Acetyl-2,6-diazaspiro[3.3]heptan-2-yl)methyl)-6-methoxypyrazin-2-yl)-2,2′-dichloro-[1,1′-biphenyl]-3-yl)-1,5-dimethyl-4,5,6,7-tetrahydro-1H-imidazo[4,5-c]pyridine-2-carboxamide] |
| 4.6 nM | 97% | 69 h | 743 ng·h/mL | 37 ng/mL | 47 h | 6 h | 0.7 nM | COc1nc(-c2cccc(-c3cccc(NC(=O)c4nc5c(n4C)CCN(C)C5)c3Cl)c2Cl)ccc1CNC[C@H](C)O [Embodiment 127, (S)—N-(2,2′-Dichloro-3′-(5-(((2-hydroxypropyl)amino)methyl)-6-methoxypyridin-2-yl)-[1,1′-biphenyl]-3-yl)-1,5-dimethyl-4,5,6,7-tetrahydro-1H-imidazo[4,5-c]pyridine-2-carboxamide] |

| Structure (SMILES) | IC50 (human PD-1/PD-L1 binding) | Emax [1] | MRT inf [2] | AUC(0-t) [2] | Cmax [2] | half-life [2] | Tmax [2] | IC50 [1] |
| --- | --- | --- | --- | --- | --- | --- | --- | --- |
| COc1nc(-c2cccc(-c3cccc(NC(=O)c4nc5c(n4C)CCN(C)C5)c3Cl)c2Cl)ccc1CN1CC(F)C1 [Embodiment 120, N-(2,2′-Dichloro-3′-(5-((3-fluoroazetidin-1-yl)methyl)-6-methoxypyridin-2-yl)-[1,1′-biphenyl]-3-yl)-1,5-dimethyl-4,5,6,7-tetrahydro-1H-imidazo[4,5-c]pyridine-2-carboxamide] | 7.4 nM | 95% | 17 h | 500 ng·h/mL | 34 ng/mL | 12 h | 2 h | 1.2 nM |
